Laboratory results from patent publication US5656604A, “Peptide compound and its preparation” (Fujisawa Pharmaceutical Co., Ltd., priority 1990, dated 1997).

Test system: rabbit thoracic aorta contraction induced by endothelin
Procedure: Thoracic aorta were isolated from freshly killed male albino rabbits (11 weeks old) and cut into 25 mm strips with the intima denuded. After removing fatty tissues, these arterial segments (2 mm width and 25 mm length) were suspended in 25 ml organ chambers filled with Krebs-Ringer solution (113 mM NaCl, 4.8 mM KCl, 2.2 mM CaCl2, 1.2 mM MgCl2, 25 mM NaHCO3, 1.2 mM KH2 PO4, 5.5 mM glucose) maintained at 37° C. and gassed with 95% O2 /5% CO2.
A preload of 0.5 g was applied after the aorta had been conditioned by application of increasing concentration of KCl. Contractions were measured as an increase in isometric tension.
Test Compound was tested against contractile response of rabbit aorta induced by endothelin (3.2×10^-9 M). […] Test Compound was added after the full contraction response induced by endothelin.

IC50: 230 nM
Compound: CC(C)C[C@H](NC(=O)NC1CCCCC1)C(=O)N[C@H](Cc1cn(C)c2ccccc12)C(=O)N[C@H](Cc1ccccn1)C(=O)O [A]
